In data set [1] the test system is A2780 human ovarian tumour xenograft. The experiment in a line: A2780 human ovarian tumour xenograft efficacy study. The class given is in vivo, mice. The settings on record: 100 mg/kg i.p. days 0–4 and 7–11. From the text: (§1) Female CD-1 (Crl:CD1-Foxn1^nu) immunodeficient nude mice aged 6–12 weeks were used (Charles River, Margate UK). Mice were kept in stainless steel cages housed in isolation cabinets in an air-conditioned room with regular alternating cycles of light and darkness, receiving Teklad 2018 diet (Envigo, Blackthorn, UK) and water ad libitum. Before experimentation, all mice were allowed to acclimatise for one week to their environment. Environmental enrichment was provided in the form of Perspex “mouse houses”, chewing blocks and exercise wheels.
To assess in vivo compound efficacy, mice were implanted subcutaneously in the abdominal flanks with 2–3 mm^3 -fragments of A2780 human ovarian tumour xenograft tumours, whilst under brief general inhalation anaesthesia (2% isoflurane). Treatments were initiated when tumours reached approximately 32 mm^3 and mice randomly assigned to cohorts (Twelve mice; n = 6 per group). […] Tumour volume, via calliper measurements, and body weight were assessed daily from initiation of treatment. The cut-off points for in-study termination being a > 15% body weight loss over a 72-h period and the tumour not exceeding 15 mm in the longest diameter. All mice were euthanised by isoflurane anaesthesia followed by cervical dislocation […]
On the technique in general: Xenograft models place foreign cells or tissue in a host animal.

A further data set addresses HDAC5 (Homo sapiens, UniProt Q9UQL6). The experiment in a line: Inhibition of individual recombinant KDACs.
The test system of the next data set is leukemic cell lines. The experiment in a line: NCI-60 cytotoxicity screen, leukaemic cell lines. The format is cell-based. The settings on record: Homo sapiens; NCI-60, range over cell lines; read-out: cytotoxicity IC50 against leukemic cell lines. The text has this:
Compounds 3–7 were submitted to the US National Cancer Institute (NIH, Bethesda, Maryland) for screening against the NCI-60 panel of human cancer cell lines, as per standard protocol.

A further data set concerns the target HDAC2 (Homo sapiens, UniProt Q92769). The experiment in a line: Inhibition of individual recombinant KDACs.
Data set [2] in a line: Maximum tolerated dose evaluation in nude mice. The format is in vivo.
Description: as §1
For evaluation of the maximum tolerated dose (MTD), two mice were treated at each of the three dose levels evaluated ([…]). […] Mice were observed daily for signs of deleterious effects and bodyweight measured frequently. […] If no deleterious effects were seen after at least 14 days of study, then the animals were euthanised by isoflurane anaesthesia followed by cervical dislocation, and the dose considered non-toxic.

The next data set addresses HDAC10 (Homo sapiens, UniProt Q969S8). The experiment in a line: Inhibition of individual recombinant KDACs.
The subject of data set [3] is hyperacetylated Histone H4. The experiment in a line: Western blot of histone H4 hyperacetylation in A2780 cells. The class given is cell-based, human. The settings on record: A2780, 10 µM, 2, 4, 16 hrs. How it is done:
Cells were then washed with ice-cold phosphate buffered saline (PBS) and lysed and sonicated in RIPA buffer [150 mM NaCl, 50 mM TrisHCl pH 7.4, 5 mM EDTA, 1% NP40, 0.1% SDS, 1 mM phenylmethylsulphonyl fluoride (PMSF) and proteinase inhibitor cocktail (1x)]. Cellular debris was removed by centrifugation (12,000 × g for 20 min, 4 °C) and protein concentration of the supernatants determined by Bradford Assay. Proteins (30 μg protein per lane) were resolved by SDS-PAGE, then transferred to the PVDF membrane (Hybond-P; Amersham, UK). For band size determination, Amersham Full-Range Rainbow™ Molecular Weight Markers (#RPN800) were loaded adjacent to the proteins within the gel. Non-specific protein binding on the PVDF membrane was blocked using 5% non-fat milk powder and the membranes probed separately with either anti-hyperacetylated Histone H4 (Penta) antibody (Upstate Biotechnology, USA), acetylated tubulin or β-actin antibodies (Sigma-Aldrich, UK). This was followed by incubation with horseradish peroxidase (HRP)-conjugated secondary antibodies (Dako, USA), with immunoreactive bands detected by enhanced chemiluminescence (ECL Plus detection kit; Amersham, UK).
For orientation: A western blot detects proteins with antibodies after separation by electrophoresis.

In a further data set the target is HDAC6 (Homo sapiens, UniProt Q9UBN7). The experiment in a line: Inhibition of individual recombinant KDACs.

In general, IC50 refers to the concentration that gives 50% inhibition. Usually MTD stands for the highest dose tested that stayed within the study's limit of toxicity. The low end stands for poorer tolerability, the high end for better tolerability.

Entries after “also recorded” stand apart in the source; their conditions may differ.

Sequence of HDAC2 (Q92769 whole entry): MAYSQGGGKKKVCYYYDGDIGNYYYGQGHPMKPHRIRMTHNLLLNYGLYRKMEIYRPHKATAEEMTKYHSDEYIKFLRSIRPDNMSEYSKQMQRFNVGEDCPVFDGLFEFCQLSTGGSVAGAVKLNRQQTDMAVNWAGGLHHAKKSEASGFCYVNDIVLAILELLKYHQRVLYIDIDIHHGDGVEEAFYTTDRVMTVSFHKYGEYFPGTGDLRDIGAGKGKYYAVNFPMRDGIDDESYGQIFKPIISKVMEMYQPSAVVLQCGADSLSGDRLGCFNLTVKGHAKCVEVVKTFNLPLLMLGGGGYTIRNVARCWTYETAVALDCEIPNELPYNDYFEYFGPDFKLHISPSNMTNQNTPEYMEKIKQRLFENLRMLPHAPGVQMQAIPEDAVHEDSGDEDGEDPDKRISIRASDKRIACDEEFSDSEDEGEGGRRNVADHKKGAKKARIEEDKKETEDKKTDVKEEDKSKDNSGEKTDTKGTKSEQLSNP
Sequence of HDAC10 (Q969S8 whole entry): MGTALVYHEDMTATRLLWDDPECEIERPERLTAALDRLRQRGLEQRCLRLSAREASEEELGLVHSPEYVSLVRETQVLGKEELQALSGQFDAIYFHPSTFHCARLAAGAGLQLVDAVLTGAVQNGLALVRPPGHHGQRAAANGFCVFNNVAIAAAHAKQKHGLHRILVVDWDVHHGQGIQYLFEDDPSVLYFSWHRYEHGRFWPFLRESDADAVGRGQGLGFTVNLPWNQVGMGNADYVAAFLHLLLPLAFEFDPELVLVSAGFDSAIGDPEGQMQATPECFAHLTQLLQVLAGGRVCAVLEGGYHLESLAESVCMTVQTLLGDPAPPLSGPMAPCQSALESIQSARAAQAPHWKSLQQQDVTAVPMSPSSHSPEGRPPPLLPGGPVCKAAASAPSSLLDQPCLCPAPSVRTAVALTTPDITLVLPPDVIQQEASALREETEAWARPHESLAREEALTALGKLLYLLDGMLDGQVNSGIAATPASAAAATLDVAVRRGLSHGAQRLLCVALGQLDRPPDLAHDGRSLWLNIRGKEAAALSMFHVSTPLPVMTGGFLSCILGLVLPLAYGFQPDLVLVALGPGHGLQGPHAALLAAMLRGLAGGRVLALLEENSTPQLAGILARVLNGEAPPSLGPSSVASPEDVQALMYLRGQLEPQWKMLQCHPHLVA
Sequence of HDAC6 (Q9UBN7 whole entry): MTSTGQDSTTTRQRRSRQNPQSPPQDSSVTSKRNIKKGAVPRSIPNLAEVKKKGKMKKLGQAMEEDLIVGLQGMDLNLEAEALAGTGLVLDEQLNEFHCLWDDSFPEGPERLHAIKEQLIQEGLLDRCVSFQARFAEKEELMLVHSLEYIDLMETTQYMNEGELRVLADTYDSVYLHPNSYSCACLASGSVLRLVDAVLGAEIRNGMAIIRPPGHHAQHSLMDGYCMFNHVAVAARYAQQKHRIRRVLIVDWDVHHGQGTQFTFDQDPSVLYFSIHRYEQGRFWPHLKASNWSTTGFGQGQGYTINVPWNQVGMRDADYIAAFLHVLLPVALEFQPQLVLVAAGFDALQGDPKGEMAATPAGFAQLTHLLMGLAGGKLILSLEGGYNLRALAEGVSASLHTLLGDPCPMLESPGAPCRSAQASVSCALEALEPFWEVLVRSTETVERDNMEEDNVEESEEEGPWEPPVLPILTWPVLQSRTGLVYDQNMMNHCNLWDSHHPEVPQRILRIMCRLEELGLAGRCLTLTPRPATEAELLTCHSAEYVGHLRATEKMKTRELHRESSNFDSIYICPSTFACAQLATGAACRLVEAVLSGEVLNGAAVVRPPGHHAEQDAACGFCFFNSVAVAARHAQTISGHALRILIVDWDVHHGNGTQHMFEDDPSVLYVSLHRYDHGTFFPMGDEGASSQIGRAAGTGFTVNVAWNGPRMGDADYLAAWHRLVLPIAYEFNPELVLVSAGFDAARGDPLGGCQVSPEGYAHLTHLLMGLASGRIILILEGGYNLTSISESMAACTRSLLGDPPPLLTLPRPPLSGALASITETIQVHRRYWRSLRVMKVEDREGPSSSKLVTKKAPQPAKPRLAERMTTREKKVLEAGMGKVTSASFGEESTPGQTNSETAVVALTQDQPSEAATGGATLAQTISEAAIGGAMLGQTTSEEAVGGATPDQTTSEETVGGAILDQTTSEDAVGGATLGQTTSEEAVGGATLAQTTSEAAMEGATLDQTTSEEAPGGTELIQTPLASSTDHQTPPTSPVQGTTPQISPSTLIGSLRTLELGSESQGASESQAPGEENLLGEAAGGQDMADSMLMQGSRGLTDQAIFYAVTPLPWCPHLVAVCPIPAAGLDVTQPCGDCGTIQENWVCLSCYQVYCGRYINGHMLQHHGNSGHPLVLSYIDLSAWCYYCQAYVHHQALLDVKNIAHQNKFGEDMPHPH
Sequence of HDAC5 (Q9UQL6 whole entry): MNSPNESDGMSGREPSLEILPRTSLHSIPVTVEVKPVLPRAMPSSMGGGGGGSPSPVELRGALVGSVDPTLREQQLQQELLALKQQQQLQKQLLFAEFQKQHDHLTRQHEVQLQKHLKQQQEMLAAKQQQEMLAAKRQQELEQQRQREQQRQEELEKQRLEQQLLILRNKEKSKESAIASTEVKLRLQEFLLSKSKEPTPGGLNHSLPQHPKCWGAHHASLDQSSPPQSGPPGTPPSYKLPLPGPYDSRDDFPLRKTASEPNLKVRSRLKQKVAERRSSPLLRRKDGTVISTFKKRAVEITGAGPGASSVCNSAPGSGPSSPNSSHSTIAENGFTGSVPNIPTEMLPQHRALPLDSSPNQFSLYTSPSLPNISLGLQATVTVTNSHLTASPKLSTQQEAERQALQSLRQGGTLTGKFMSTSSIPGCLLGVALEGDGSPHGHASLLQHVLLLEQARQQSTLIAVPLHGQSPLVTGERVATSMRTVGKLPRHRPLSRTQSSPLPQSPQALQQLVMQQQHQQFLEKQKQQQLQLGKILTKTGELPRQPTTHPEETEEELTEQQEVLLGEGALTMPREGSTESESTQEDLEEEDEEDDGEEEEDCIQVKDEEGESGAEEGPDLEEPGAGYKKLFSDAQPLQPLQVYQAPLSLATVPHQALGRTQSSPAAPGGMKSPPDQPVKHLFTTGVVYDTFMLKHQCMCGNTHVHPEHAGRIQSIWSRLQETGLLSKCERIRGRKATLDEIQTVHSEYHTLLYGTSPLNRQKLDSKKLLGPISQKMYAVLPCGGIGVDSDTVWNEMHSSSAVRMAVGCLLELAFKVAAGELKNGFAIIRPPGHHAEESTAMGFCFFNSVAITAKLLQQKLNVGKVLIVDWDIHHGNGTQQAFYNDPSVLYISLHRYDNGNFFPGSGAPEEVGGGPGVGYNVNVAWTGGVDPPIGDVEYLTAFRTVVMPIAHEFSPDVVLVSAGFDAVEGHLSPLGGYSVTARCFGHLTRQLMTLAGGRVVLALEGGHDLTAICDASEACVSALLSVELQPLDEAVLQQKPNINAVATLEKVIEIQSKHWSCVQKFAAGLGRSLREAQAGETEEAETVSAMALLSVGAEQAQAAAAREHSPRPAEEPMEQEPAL

Turning to `C=C(CN1CCN(c2cccc(C(F)(F)F)n2)CC1)c1ccc(C(=O)Nc2ccccc2N)cc1` [Compound 7, N-(2-aminophenyl)-4–(3-(4–(6-(trifluoromethyl)pyridin-2-yl)piperazin-1-yl)prop-1-en-2-yl)benzamide], in data set [1], the “weight loss / toxicity during treatment” value is given as “No significant weight loss or overt toxicity; also recorded: did not induce significant weight loss or detrimental toxicity”. Also, the half-maximal inhibitory concentration (IC50) on HDAC5 is more than 10 µM; in the data set on leukemic cell lines, 0.28 to 0.86 µM; at HDAC2, 3.97 µM; on HDAC10, more than 10 µM; at HDAC6 it was more than 10 µM. The systemic toxicity entry in data set [2] (100 mg/kg i.p., 5 consecutive days) was “No systemic toxicity”. The molecule also showed an MTD in data set [2] (female, CD-1 nude (Crl:CD1-Foxn1^nu), mouse, in vivo, ip, single dose on 5 consecutive days) of 100 mg/kg. Also, the “histone H4 hyperacetylation (western blotting)” value in data set [3] is given as “Time dependent increase in Histone H4 acetylation; also recorded: time-dependent increase in histone H4 hyperacetylation”.

(Values after publication PMC12217109, “Development of novel benzamide class I selective lysine deacetylase inhibitors as potent anticancer agents” (Journal of Enzyme Inhibition and Medicinal Chemistry, 2025).)
